Patent US20080292616A1, “Topical Formulations of Histone Deacetylase Inhibitors and Methods Using the Same” (Government of the United of America, Represented by the …, priority 2005, published 2008)

Legend:
rabbits = assay: Topical tolerability study in rabbits, three times weekly for 4 weeks (Example 2); assay type: in vivo, rabbit
Protocol: The dose used is again 2.5/mg/kg/d (30 mg/m2/d) FR901228 or vehicle in AC, but is applied topically, 4 hrs. a day, for 4 weeks, three times weekly. The study parameters include weekly clinical pathology and histopathology takes place at days 27 and 41. The compositions are applied to substantially all of the rabbit's back. In the case of a human patient or other diseased subject, the composition can be applied to disease-affected and/or non-affected surface areas.

[1] = intravenous infusion over 4 hours on days 1 and 5 of a 21-day cycle; cited from earlier work
[2] = system: New Zealand white rabbits; assay: Topical toxicity study in rabbits, 4 hours daily application (Example 1); conditions: 2.5 mg/kg topically for 14 days
Protocol: A study uses New Zealand white rabbits to determine topical toxicity of the depsipeptide FR901228 when applied topically in either Cetaphil° lotion (CL) or Aquaphor cream (AC).
The dose of depsipeptide is 2.5 mg/kg/day (30 mg/m2/d); controls receive vehicle (Aquaphor or Cetaphil) in place of depsipeptide. A highly intense dosing regimen is employed to study toxicity. The study is designed for application of the respective topical composition to the rabbits for 4 hours daily for 28 days. The four-hour application is accomplished by removing the applied composition approximately four hours after application. Four groups of rabbits (2 rabbits/sex/group) are used with two control and two experimental groups. The control groups receive carrier alone (CL or AC) and the experimental groups receive FR901228 in the respective carriers. The experimental parameters include weekly testing of clinical pathology and plasma drug levels. Histopathology is performed at days 15 and 28.

[3] = FR901228 in AC, 2.5 mg/kg/d topical, 4 hrs a day, 4 weeks

C/C=C1\NC(=O)[C@H]2CSSCC/C=C/[C@H](CC(=O)N[C@H](C(C)C)C(=O)N2)OC(=O)[C@H](C(C)C)NC1=O [FR901228, (E)-(1S, 4S, 10S, 21R)-7-[(Z)-ethylidene]-4,21-diisopropyl-2-oxa-12,13-dithia-5,8,20,23-tetraazabicyclo [8,7,6]-tricos-16-ene-3,6,19,22-pentanone]
Draize scoring (rabbits; [3]): slight to well-defined | onset of red skin at the application site (rabbits; [3]): 9 days | pathology: microscopic lesions at the application site (rabbits; day 27, FR901228 in AC): ulcers of minimal severity | increased FBN (rabbits; days 4, 11, and 27, FR901228 in AC): 1.6-2 × | maximum tolerated dose [1]: 17.8 mg/m2 | skin toxicity at the application site (conclusion) [2]: significant skin toxicity at the application site
